Values joined by “and” are separate entries in the source; they are usually repeats but may differ in a detail not shown here. Equal values may be shown once. “Also recorded” adds a separate entry of the source. Read-outs that look alike come from different tables or passages of the source. Values belong to the molecule of their own block, whether it stands above or below them.
Assays:
[1] = tested on: Trypanosoma brucei rhodesiense; assay: T. b. rhodesiense in vitro growth inhibition; type: cell-based; conditions: for IC50: Trypanosoma brucei, RHODESIENSE / STIB900, Figure 1, bloodstream form STIB 900 strain, read-out: IC50 against Trypanosoma brucei rhodesiense parasites
Method: The synthesized compounds were then tested against T. b. rhodesiense parasites as previously reported, and their activities are shown in Figure 1 along with that of B6.
T. b. rhodesiense in vitro growth inhibition activity of 1–3 (Fig. 1) was assessed using bloodstream form of STIB 900 strain, following the procedure reported in Orhan et al..

[2] = tested on: permeabilized T. b. brucei bloodstream-form cells; assay: Oxygen consumption in permeabilized bloodstream-form cells (Clark electrode); type: cell-based
Method: Oxygen consumption was monitored in a thermostated vessel at 37°C with a Clark electrode (oxygraph). Measurements in permeabilized bloodstream-form T. brucei were done in buffer 1 (96.9 mM NaCl, 3.1 mM KCl, 5 mM MgCl2, 2 mM Na2HPO4, 90 mM Tris at pH 7.5). Batches of 2×10^7 cells were pelleted, washed in buffer 1 and incubated for 5′ on ice in 1 ml of buffer 1 containing 1 ng digitonin to permeabilize the cells. Subsequently the permeabilized cells were pelleted and washed twice with buffer 1 without digitonin after which the pellet was taken up in 1 ml buffer 1 and transferred to the oxygraph. Substrates and inhibitors were added as described in the text.
B6 and SHAM were dissolved in DMSO. The DMSO concentration used in these oxygen consumption measurements was less than 0.7%.
To determine whether B6 could exert its trypanocidal action also through this mechanism, respiration was monitored in permeabilized T. b. brucei bloodstream-form cells in the presence of B6 and/or SHAM (Fig. 7). SHAM is an inhibitor of TAO, which acts as the final electron acceptor in bloodstream form T. b. brucei.

[3] = tested on: bloodstream-form T. b. brucei strain Lister 427; assay: Growth inhibition (LILIT) of bloodstream-form T. b. brucei; type: cell-based; conditions: cultured bloodstream form
Method: (§1) We used bloodstream and procyclic forms of T. b. brucei strain Lister 427, cell lines 449 [34], constitutively expressing the E. coli tetracycline (Tet) repressor gene via the chromosomally integrated plasmid pHD449 that also confers phleomycin resistance. Bloodstream forms were cultured in HMI-9 medium containing 10% heat-inactivated foetal calf serum (Invitrogen) and 0.18 µg/ml phleomycin (Cayla) at 37°C under water-saturated air with 5% CO2. Procyclic trypanosomes were grown in SDM79 medium supplemented with 15% foetal calf serum and 0.5 µg/ml phleomycin at 28°C under water-saturated air with 5% CO2. The glucose-depleted SDM-80 medium, first employed by Lamour et al., was supplemented with 5 µg/ml hemin, 9% (v/v) dialyzed “glucose free” heat-inactivated foetal calf serum (Sigma) and 1% (v/v) of normal heat-inactivated foetal calf serum (Invitrogen).
(§2) The anti-trypanosomal activity tests were also performed on T. b. brucei according to the “Long Incubation Low Inoculation Test” (LILIT), [39] using cultured bloodstream and procyclic forms of T. b. brucei strain Lister 427, cell line 449 [34].

mammalian cell lines = tested on: mammalian cell lines; design: method as in PMID 18353643; conditions: ratio of ED50 values on mammalian cell lines and trypanosomes; cited from earlier work
TbGK = TbGK (Trypanosoma brucei brucei, UniProt Q9NJP9); assay: T. b. brucei glycerol kinase enzyme-coupled spectrophotometric assay; type: biochemical; conditions: mean of three independent experiments; 25°C
TbGK, sequence (Q9NJP9 whole entry): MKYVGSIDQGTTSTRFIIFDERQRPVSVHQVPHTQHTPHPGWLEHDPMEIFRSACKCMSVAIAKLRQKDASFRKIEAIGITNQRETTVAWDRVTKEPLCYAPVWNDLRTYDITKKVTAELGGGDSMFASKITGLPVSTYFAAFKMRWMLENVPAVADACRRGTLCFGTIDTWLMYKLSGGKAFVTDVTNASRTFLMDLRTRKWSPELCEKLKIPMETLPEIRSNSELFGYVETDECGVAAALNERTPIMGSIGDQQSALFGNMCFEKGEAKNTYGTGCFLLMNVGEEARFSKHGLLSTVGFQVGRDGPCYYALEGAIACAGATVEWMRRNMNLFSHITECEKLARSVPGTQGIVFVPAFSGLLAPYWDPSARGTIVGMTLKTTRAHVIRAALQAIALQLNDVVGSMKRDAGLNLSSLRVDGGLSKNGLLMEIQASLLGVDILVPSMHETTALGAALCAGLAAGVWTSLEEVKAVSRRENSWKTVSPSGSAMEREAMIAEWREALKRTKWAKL
Method: The expression construct has been obtained by subcloning the corresponding GK gene (isolated from T. b. brucei strain Lister 427) from the formerly designed pET15-TbGK plasmid into vector pET28 to create the final expression plasmid pET28-TbGK (unpublished data). TbGK was then expressed in E. coli BL21(DE3)-CodonPlus-RIL grown in 1 liter LB medium supplemented with kanamycin (50 µg/ml) and chloramphenicol (34 µg/ml) for 16 h at 37°C. Expression was induced by adding 1 mM isopropyl β-d-thiogalactanopyranoside (IPTG), and growth was continued for another 2 h at 37°C. […] TbGK was eluted using a 10 column volumes linear imidazole-gradient using buffer A and buffer B. Eluted fractions were analyzed by SDS-PAGE. […] After overnight incubation at 16°C, the digested protein was concentrated and desalted using a Superdex 75 column equilibrated with buffer A. Protein concentration was determined at 280 nm (extinction coefficient = 81650 M^−1 cm^−1). […]
The TbGK activity was measured using a modified version of a continuous enzyme-coupled spectrophotometric assay developed previously. […] The IC50 value of B6 was calculated as the mean of three independent experiments.

TbGAPDH = TbGAPDH (Trypanosoma brucei brucei, UniProt P22512); assay: T. b. brucei glyceraldehyde-3-phosphate dehydrogenase enzyme-coupled spectrophotometric assay; type: biochemical; conditions: for IC50: 10 min pre-incubation
TbGAPDH, sequence (P22512 whole entry): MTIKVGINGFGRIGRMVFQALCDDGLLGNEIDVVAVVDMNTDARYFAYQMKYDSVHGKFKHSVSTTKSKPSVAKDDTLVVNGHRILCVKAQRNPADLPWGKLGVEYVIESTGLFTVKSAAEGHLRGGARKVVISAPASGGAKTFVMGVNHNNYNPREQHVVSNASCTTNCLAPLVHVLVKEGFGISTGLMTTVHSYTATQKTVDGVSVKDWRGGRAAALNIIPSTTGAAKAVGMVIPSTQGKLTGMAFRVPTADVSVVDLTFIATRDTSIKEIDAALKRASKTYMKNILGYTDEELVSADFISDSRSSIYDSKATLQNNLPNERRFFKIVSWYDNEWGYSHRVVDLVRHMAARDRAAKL
Method: The kinetics of the TbGAPDH reaction was monitored using a continuous enzyme-coupled spectrophotometric assay, as previously described. In brief, TbGAPDH activity was measured following the NADH oxidation at 340 nm, in a coupled assay with 3-phosphoglycerate kinase and using a Jasco V-550 spectrophotometer.
All measurements were performed at 25°C in 0.01 M triethanolamine, pH 7.6, 1.7 mM ATP, 1 mM EDTA, 100 mM KCl, 5 mM MgSO4, 1.7 mM NaHCO3, 25 µg 3-phosphoglycerate kinase. The IC50 values were determined in a final volume of 1 ml in the presence of 120 ng TbGAPDH and 5.6 mM 3-phosphoglycerate (3-PGA), while varying the B6 concentration after a pre-incubation of enzyme plus inhibitor for 10 min. The reaction was started by the addition of 0.2 mM NADH. Each point of the curve was measured in triplicates and the value for IC50 was estimated from graphically plotted dose-response curves.
The type of inhibition was determined with respect to NADH and 3-PGA in consideration of Michaelis-Menten steady-state conditions. To investigate the inhibition mechanism with respect to NADH, TbGAPDH was incubated for 10 min at room temperature with different inhibitor concentrations (0–15 µM) in a total volume of 1 ml. The reaction was initiated by the addition of 5.6 mM 3-PGA and NADH (ranging from 5 µM to 200 µM). The inhibition mechanism with respect to 3-PGA was determined in a similar way. To this end, TbGAPDH was incubated with varying inhibitor concentrations (10 nM–100 µM). The reaction was initiated by the addition of 0.2 mM NADH and 3-PGA (ranging from 50 µM to 5.6 mM). The α and Ki values were obtained from Dixon and secondary plots. The reported values represent the mean of two independent experiments.

[4] = tested on: procyclic T. b. brucei strain Lister 427; assay: Growth inhibition (LILIT) of procyclic T. b. brucei with or without glucose; type: cell-based
Method: as §1, §2
Tests of growth inhibition by B6 were performed on procyclic trypanosomes cultured in medium containing glucose (SDM79 medium), resulting in glycolytic activity for the cells' main energy supply, or without glucose (SDM80 medium), where the proline is the main substrate for free energy production through mitochondrial metabolism. Under these latter conditions, the glycosomal GAPDH would still be needed for gluconeogenesis, to synthesize glucose 6-phosphate for production of glucoconjugates, but the gluconeogenic flux is assumed to be much lower than the glycolytic flux when glucose is present.

[5] = tested on: T. b. brucei bloodstream-form mitochondria; assay: ROS (H2O2) production by mitochondrial fraction, H2DCFDA fluorescence; type: cell-based; conditions: 10 µM B6, in the presence of G3P
Method: Bloodstream- and procyclic-form T. b. brucei cells (strain Lister 427, cell line 449) were cultured up to the exponential growth phase and homogenates were obtained by grinding the washed parasite pellets with silicon-carbide abrasive grain (mesh 300) in disruption buffer containing 250 mM sucrose, 25 mM Tris-HCl and l mM EDTA, pH 7.8 (STE buffer). Differential centrifugation was performed as follows: the suspension was taken up in another 3 ml STE buffer and centrifuged at 30 g for 3 min. The supernatant, representing the cell homogenate, was centrifuged at 1,500 g for 10 min giving the nuclear fraction. The post-nuclear supernatant was then centrifuged at 5,000 g for 10 min giving the large-granular (mitochondria-enriched) fraction as pellet. This fraction was resuspended in 300 µl STE buffer.
The method used to measure H2O2 production in T. b. brucei mitochondria is based on the fluorogenic probe 2′,7′-dichlorodihydrofluorescein diacetate (H2DCFDA) which emits an intense green fluorescence only after deacetylation and subsequent oxidation. ROS production by the mitochondrial fraction of bloodstream form T. b. brucei was measured in a 96-well microtiter plate using a fluorescence plate reader (Victor Wallace multiplate reader).
In each well, 0.25 mg mitochondrial protein/ml and 5 µM H2DCFDA to a final volume of 0.2 ml with 10 mM Tris-HCl, 50 mM KCl, 1 mM EDTA, pH 7.5 were present. […]

[6] = tested on: bloodstream form T. b. brucei G6PDH RNAi cell line; assay: Growth inhibition of bloodstream-form T. b. brucei G6PDH RNAi cell line; type: cell-based
Description: To provide support for the notion that the trypanocidal effect of B6 could in part be attributed to the generation of toxic ROS, we made use of an available bloodstream form T. b. brucei cell line in which glucose-6-phosphate dehydrogenase (G6PDH) expression can be knocked down by RNA interference (RNAi). Previously, it has been shown that this cell line grows equally well as wild-type cells under normal (reducing) growth conditions, but it is highly susceptible to ROS when the G6PDH expression is partially knocked down, an effect attributed to decreased NADPH production.

[7] = tested on: Trypanosoma brucei rhodesiense; design: method as in PMID 18353643; conditions: cited from earlier work
Trypanosoma = tested on: Trypanosoma; design: method as in earlier work; conditions: cited from earlier work
[8] = design: method as in earlier work; conditions: cited from earlier work

IC50 [1]: 0.57 µM
Compound: Nc1ccc(OC2=CC(=O)c3ccccc3C2=O)cc1 [Compound 1, 2-(4-amino-phenoxy)-[1,4]naphthoquinone]
times less active than B6 ([1]; anti-T. b. rhodesiense activity relative to B6): 7 times

Compound: O=C(NO)c1ccccc1O [SHAM, salicylhydroxamic acid, reference compound]
respiration ([2]; 2 mM SHAM, 10 mM G3P as electron donor): inhibited respiration completely

IC50 [1]: 0.85 µM
Compound: O=C1C=C(Oc2ccccc2)C(=O)c2c(O)cccc21 [Compound 3, 8-hydroxy-2-phenoxy-[1,4]naphthoquinone]

IC50 [1]: 4.4 µM
Compound: O=C1C(Oc2ccccc2)=CC(=O)c2c(O)cccc21 [Compound 2, 5-hydroxy-2-phenoxy-[1,4]naphthoquinone]

Compound: O=C1C=C(Oc2ccccc2)C(=O)c2ccccc21 [B6, 2-phenoxy-1,4-naphthoquinone]
ED50 bloodstream-form T. b. brucei strain Lister 427 [3]: 24.8 µM | oxygen consumption rate ([2]; cells respiring on 10 mM G3P, absence and presence of SHAM): the oxygen consumption rate increased | selectivity index (mammalian cell lines): 74 | IC50 (TbGK): 0.9 ± 0.3 µM | IC50 (TbGAPDH; then 1:10 dilution of enzyme and inhibitor, read-out: IC50 TbGAPDH after dilution 1:10): 9.98 ± 3.53 µM | IC50 (TbGAPDH; standard conditions, without dilution, read-out: IC50 TbGAPDH): 7.25 ± 1.62 µM | Ki (TbGAPDH; variation of 3-PGA): 5 µM and 4.99 µM | Ki (TbGAPDH; variation of NADH): 3.6 µM | α value (TbGAPDH; with respect to 3-PGA): 0.4 | α value (TbGAPDH; with respect to NADH): 0.6 | type of inhibition of TbGAPDH (TbGAPDH; with respect to NADH and 3-PGA, double reciprocal plots): non-competitive inhibitor (mixed type) | fold more susceptible, procyclic versus bloodstream-form ([4]; glucose-grown cells, strain Lister 427): 100 fold | ED50 procyclic trypanosomes ([4]; medium containing glucose (SDM79)): 0.25 ± 0.09 µM and 0.25 µM | ED50 procyclic trypanosomes ([4]; without glucose (SDM80), proline metabolism): 0.67 ± 0.16 µM | ROS production [5]: able to generate radicals in a significant way; also recorded: considerable production of ROS | ED50 induced RNAi cell line ([6]; G6PDH expression knocked down by RNAi): 0.25 µM | ED50 non-induced RNAi cell line ([6]; non-induced): 10.8 µM | IC50 ([7]; Figure 1, lead B6, read-out: IC50 against Trypanosoma brucei rhodesiense parasites): 0.08 µM | ED50 against Trypanosoma brucei rhodesiense ([7]; in vitro cultured parasites): 0.08 µM

Compound: CC(C)=CCC1=C(O)C(=O)c2ccccc2C1=O [lapachol]
anti-trypanosomal profile (Trypanosoma): marked anti-trypanosomal profile | toxic effects in humans [8]: no serious toxic effects in humans

Source: article PMC3547856, “Naphthoquinone Derivatives Exert Their Antitrypanosomal Activity via a Multi-Target Mechanism” (PLoS Neglected Tropical Diseases, 2013)
